Experimental data reported in patent US6448283B1, “Methods for preventing/treating damage to sensory hair cells and cochlear neurons” (Cephalon, Inc., priority 1998, dated 2002).

Key:
[1] = system: outer hair cells in organotypic cultures of the neonatal organ of Corti; assay: Hair cell counts in neomycin-exposed cochlear explant cultures; format: cell-based, rat
Protocol: (§1) The basal half of cochleas containing the basal and middle turns were dissected from postnatal day 2 Wistar rats. The cultures were maintained on Nuclepore filters (pore size […]; Pleasanton, Calif.) placed on a metal grid in F12 medium (Life Technologies, Gaithersburg, Md.) containing 15% fetal bovine serum (Life Technologies). After a 2-hour-long stabilization period, explants were exposed to 100 mM neomycin sulfate (Sigma, St Louis, Mo.) for 48 hr.
(§2) Explants were fixed with 4% paraformaldehyde/0.5% glutaraldehyde in phosphate buffered saline (PBS), pH 7.4, for 30 min and dissected for surface preparations. They were stained with a 1:100 dilution of rhodamine-phalloidin in PBS containing 0.25% Triton X-l 00 overnight at 4° C. and mounted in Vectashield (Vector). Outer hair cell (OHC) numbers were quantified with a Zeiss Axiovert 100/135 epifluorescent microscope (Germany) connected to a Bio-Rad MRC-1024 confocal laser scanning system (Richmond, Calif.). Hair cells were characterized as missing if no stereocilia and cuticular plate were observed. Numbers of OHCs were evaluated using a 40×objective lens and an ocular grid. Nine to 1 fields filled by 30 OHCs in each of the 3 rows (when all of them were present) were studied from each explant. Basal and middle coils were analyzed separately. Three separate experiments, each including 4 explants of both conditions (neomycin and neomycin plus Formula II) were analyzed.
as §1, with “μM” for “mM”, “hr. The compounds of Formula I and the compound of Formula I were added at 500 nM at the time of initiation of the cultures and every 12 hr thereafter. Neomycin plus vehicle was used as a control.” for “hr.”
as §2, with “X-100” for “X-l 00”, “40x objective” for “40×objective”, “Several” for “Nine to 1”, “separately.” for “separately. Three separate experiments, each including 4 explants of both conditions (neomycin and neomycin plus Formula II) were analyzed.”

[2] = system: cochlear ganglion neurons; settings: Ylikoski et al., 1998; cited from earlier work
[3] = 100 mM neomycin (so in the source) alone for 48 hr, n=12

neomycin sulfate [reference compound]
OHCs in the basal turn lost [1, 3]: Approximately 90%
OHCs in the middle turn lost [1, 3]: ~25%

O=C1NC(=O)c2c1c1c(c3[nH]c4ccccc4c23)Cc2ccccc2-1 [Example 8, 6H,12H,13H-Indeno[2,3-a]pyrrolo[3,4-c]carbazole-5,7(5H, 7H)-dione]
viability at 0.5 µM ([1]; Rattus norvegicus, 48 h, compound 500 nM plus 100 μM neomycin 48 hr, NEO = neomycin plus vehicle, each line a separate count, read-out: % preserved): 21%

NGF: nerve growth factor, negative control in cochlear neuron cultures
survival of dissociated cochlear neurons of the perinatal rat [2]: does not have any effect or its effect is very weak

B1: NT-3: neurotrophic factor, positive comparator in cochlear neuron cultures (protein, UniProt P20783 139-257, looked up)
Neurotrophin-3: YAEHKSHRGEYSVCDSESLWVTDKSSAIDIRGHQVTVLGEIKTGNSPVKQYFYETRCKEARPVKNGCRGIDDKHWNSQCKTSQTYVRALTSENNKLVGWRWIRIDTSCVCALSRKIGRT
survival of dissociated cochlear neurons of the perinatal rat [2]: most potent neurotrophic factor promoting survival
